# In paper PMC12735739, “Bromo Analogues of Active 3,4,5,4′-Tetramethoxy-trans-stilbene (DMU-212)—A New Path of Research to Anticancer Agents” (Molecules, 2025):
# Tests used:
# [1] = tested on: Jurkat human acute T-cell leukaemia; test: MTT cell viability assay, Jurkat; type: cell-based; conditions: MTT test, 72 h of action, read-out: IC50, Tumour Cell Lines, Jurkat Human Acute T-Cell Leukaemia
# Procedure: (§1) The MTT cell viability assay was performed according to a previously reported protocol. Briefly, adherent cells were seeded at a density of 5000 cells per 100 µL, and suspension cells at 25,000 cells per 100 µL, in 96-well plates and incubated overnight. Subsequently, test compounds were added in 100 µL of culture medium, followed by incubation for 72 h. After treatment, 20 µL of MTT solution (5 mg/mL, Sigma-Aldrich, Burlington, MA, USA) was added to each well. The resulting formazan crystals were dissolved in DMSO (Sigma-Aldrich, Burlington, MA, USA), and absorbance was recorded using a BioTek ELx800 Absorbance Reader (BioTek Instruments, Inc., Vinooski, VT, USA). IC50 values were calculated by nonlinear regression analysis using GraphPad Prism (version 9.1.1, GraphPad Software, Boston, MA, USA). Experiments were conducted in triplicate. Human leukemia Jurkat T-cells, human glioblastoma U251 cells were kindly provided by Collection at the Institute of Molecular Biology and Genetics, National Academy of Sciences of Ukraine (Kyiv, Ukraine). Murine macrophages of J774.2 line were a generous gift from Prof. Sir John Vane (William Harvey Research Institute, London, UK) provided via Prof. Janusz Marcinkiewicz (Jagiellonian University Medical College, Krakow, Poland). Human colorectal adenocarcinoma cell line HT-29 was kindly provided by Prof. Anna Bielawska (Department of Biotechnology, Faculty of Pharmacy, Medical University of Bialystok, Poland). Murine BALB/3T3 fibroblasts was obtained from the Cell Collection of the R.E. Kavetsky Institute of Experimental Pathology, Oncology and Radiobiology (Kyiv, Ukraine).
# [2] = tested on: U251 human malignant glioblastoma; test: MTT cell viability assay, U251; type: cell-based; conditions: U-251, MTT test, 72 h of action, read-out: IC50, Tumour Cell Lines, U251 Human Malignant Glioblastoma
# Procedure: as §1
# [3] = tested on: HT-29 human colorectal carcinoma; test: MTT cell viability assay, HT-29; type: cell-based; conditions: MTT test, 72 h of action, read-out: IC50, Tumour Cell Lines, HT-29 Human Colorectal Carcinoma
# Procedure: as §1
# Balb-3T3 mice fibroblast = test: MTT cell viability assay, Balb-3T3; type: cell-based; conditions: Mus musculus, MTT test, 72 h of action, read-out: IC50, Pseudo-Normal Cell Lines, Balb-3T3 Mice Fibroblast
# Procedure: as §1
# [4] = tested on: J744.2 mice macrophage-like cells; test: MTT cell viability assay, J744.2; type: cell-based; conditions: Mus musculus; MTT test, 72 h of action; read-out: IC50, Pseudo-Normal Cell Lines, J744.2 Mice Macrophage-Like Cells
# Procedure: as §1
# salmon sperm DNA = test: DNA intercalation assay (methyl green displacement method); type: binding; conditions: 1 and 10 μM
# Procedure: To investigate the potential mechanisms of cell death induced by the studied derivative, we evaluated apoptosis using the fluorescence microscopy of cells stained with Hoechst-33342 and Ethidium Bromide (EtBr), as well as spectroscopic and DNA/methyl green displacement assays. Methyl green is a cationic dye that binds preferentially to the phosphate backbone of DNA (primarily in the major groove). If a compound (an intercalator or groove-binding agent) is added, it can compete with methyl green for binding to DNA. The higher the percentage of substituted methyl green, the stronger the compound interacts with DNA. Intercalation is the key feature of clinically used antitumor drugs, e.g., doxorubicin (DOX). DOX displaced 41.62–45.52% of methyl green from its complex with DNA (Figure 10). Another intercalator, EtBr, replaced 42.12–47.35% of methyl green from its complex with DNA.
# A 485 μL aliquot of salmon sperm DNA (50 μg/mL, Sigma-Aldrich, Burlington, MA, USA) was incubated with 15 μL of methyl green solution (1 mg/mL, Sigma-Aldrich, Burlington, MA, USA) at 37 °C for 1 h. Subsequently, 500 μL of the test compounds, doxorubicin, or ethidium bromide (each at final concentrations of 1 μM and 10 μM) was added to the preformed methyl green–DNA complex. The samples were further incubated at 37 °C for 2 h in the dark. Absorbance was then recorded at 630 nm. GraphPad Prism (version 9.1.1, GraphPad Software, Boston, MA, USA) was used for the results analysis. Experiments were conducted in triplicate. Doxorubicin and ethidium bromide were purchased from Sigma-Aldrich, USA.
# Jurkat cells = test: Fluorescent microscopy of Jurkat cells (Hoechst 33342/EtBr staining); type: cell-based, human; conditions: 0.5 µM, 24 h
# Procedure: Jurkat cells were seeded in 24-well plates at a density of 250,000 cells/mL and incubated overnight prior to treatment. Cells were then treated for 24 h with compounds 4, 7, and 8 (0.5 µM) or doxorubicin (0.5 µM) as a positive control. Following treatment, cells were stained with Hoechst 33342 (0.2–0.5 µg/mL; Sigma-Aldrich, USA) and ethidium bromide (EtBr, 1 µg/mL). Fluorescence imaging was performed using a LIM-400 microscope (LABEX INSTRUMENT LIMITED, Ningbo, China) equipped with an MTR3CCD camera. Images were captured and analysed using ImageView software (version 4.11.21522.20221011).
# pancreas BXPC-3 = tested on: pancreas BXPC-3; set-up: method as in PMID 15943482; conditions: cited from earlier work
# neuroblast SK-N-SH = tested on: neuroblast SK-N-SH; set-up: method as in PMID 15943482; conditions: cited from earlier work
# lung-NSC NCI-H460 = tested on: lung-NSC NCI-H460; set-up: method as in PMID 15943482; conditions: cited from earlier work
# prostate DU-145 = tested on: prostate DU-145; set-up: method as in PMID 15943482; conditions: cited from earlier work
smiles,measurement,setting,value
"COc1ccc(/C=C/c2cc(OC)c(OC)c(OC)c2)cc1Br [Compound 4, 3-bromo-3′,4′,5′,4-tetramethoxy-trans-stilbene]",IC50,[1],0.76 µM
same,IC50,[2],> 100 µM
same,IC50,[3],> 100 µM
same,IC50,Balb-3T3 mice fibroblast,2.85 µM
same,IC50,[4],5.21 µM
same,percentage of methyl green dye replaced from its complex with DNA,salmon sperm DNA; range over both doses,1.87–5.98%
same,affinity for DNA,"salmon sperm DNA; methyl green displacement, in words",low affinity for DNA
same,"effect on cell morphology and viability (apoptosis, chromatin condensation, DNA fragmentation)",Jurkat cells,induced moderate apoptosis
same,GI50 pancreas BXPC-3,pancreas BXPC-3,0.34 µg/mL
same,GI50 neuroblast SK-N-SH,neuroblast SK-N-SH,0.40 µg/mL
same,GI50 lung-NSC NCI-H460,lung-NSC NCI-H460,0.36 µg/mL
same,GI50 prostate DU-145,prostate DU-145,0.45 µg/mL
